Four molecules from ChEMBL document CHEMBL3751769, “Design, synthesis, and evaluation of semi-conservative mono-carbonyl analogs of curcumin as anti-inflammatory agents against lipopolysaccharide-induced acute lung injury” (Medchemcomm, 2015) can be followed below.

For data set [1], the system named is RAW264.7. Description: Anti-inflammatory activity in mouse RAW264.7 cells assessed as inhibition of IL-6 production at 10 uM preincubated for 30 mins followed by 0.5 ug/ml LPS addition after 24 hrs by ELISA. It is filed as functional. (An ELISA detects its analyte on a solid surface through an enzyme-linked reagent.)
Data set [2] relates to RAW264.7. The data set can be described thus: Anti-inflammatory activity in mouse RAW264.7 cells assessed as inhibition of TNFalpha production at 10 uM preincubated for 30 mins followed by 0.5 ug/ml LPS addition after 24 hrs by ELISA. It is filed as functional.
The nature of data set [3]: Cytotoxicity against human HL-7702 cells assessed as cell viability at 10 uM after 24 hrs by MTT assay. It is filed as cell-based. The note with it: l02, 24 h.
In data set [4] the test system is RAW264.7. The data set can be described thus: Anti-inflammatory activity in mouse RAW264.7 cells assessed as inhibition of IL-6 production preincubated for 30 mins followed by 0.5 ug/ml LPS addition after 24 hrs by ELISA. The data set is classed as functional, cell-based.
In data set [5] the test system is RAW264.7. The data set can be described thus: Anti-inflammatory activity in mouse RAW264.7 cells assessed as inhibition of TNFalpha production preincubated for 30 mins followed by 0.5 ug/ml LPS addition after 24 hrs by ELISA. The data set is classed as functional, cell-based.
For data set [6], the system named is Rattus norvegicus. The data set can be described thus: Anti-inflammatory activity in Sprague-Dawley rat assessed as decrease in LPS- induced elevation of BALF protein concentration at 20 mg/kg/day, po for 7 days pre-treated before LPS challenge and measured 6 hrs after LPS challenge. It is filed as functional, organism-based.
For data set [7], the system named is Rattus norvegicus. The data set can be described thus: Anti-inflammatory activity in Sprague-Dawley rat assessed as reduction in LPS-induced histopathological changes at 20 mg/kg/day, po for 7 days pre-treated before LPS challenge and measured 6 hrs after LPS challenge by light microscopic analysis. It is filed as functional, organism-based.
Data set [8] has as its system Rattus norvegicus. The data set can be described thus: Anti-inflammatory activity in Sprague-Dawley rat assessed as decrease in LPS- induced number of neutrophils in BALF at 20 mg/kg/day, po for 7 days pre-treated before LPS challenge and measured 6 hrs after LPS challenge by Wright-Giemsa staining method. The data set is classed as functional, organism-based.
For data set [9], the system named is Rattus norvegicus. Description: Anti-inflammatory activity in Sprague-Dawley rat assessed as decrease in LPS- induced amount of TNFalpha in BALF at 20 mg/kg/day, po for 7 days pre-treated before LPS challenge and measured 6 hrs after LPS challenge by ELISA. It is filed as functional, organism-based.
For data set [10], the system named is Rattus norvegicus. Description: Anti-inflammatory activity in Sprague-Dawley rat assessed as decrease in LPS- induced wet/dry ratio of lung tissue at 20 mg/kg/day, po for 7 days pre-treated before LPS challenge and measured 6 hrs after LPS challenge. It is filed as functional, organism-based.
The test system of data set [11] is Rattus norvegicus. Description: Anti-inflammatory activity in Sprague-Dawley rat assessed as decrease in LPS-induced IL1beta mRNA expression at 20 mg/kg/day, po for 7 days pre-treated before LPS challenge by real-time qPCR analysis. It is filed as functional. In general terms: Quantitative PCR measures a nucleic acid by following its amplification.
The test system of data set [12] is Rattus norvegicus. The data set can be described thus: Anti-inflammatory activity in Sprague-Dawley rat assessed as decrease in LPS-induced TNFalpha mRNA expression at 20 mg/kg/day, po for 7 days pre-treated before LPS challenge by real-time qPCR analysis. It is filed as functional.
Data set [13] concerns BEAS-2B. The data set can be described thus: Anti-inflammatory activity in human BEAS2B cells assessed as inhibition of LPS-induced TNFalpha mRNA expression by real-time qPCR analysis. The data set is classed as functional. Also on record: scale not given: the % may be the effect or the level left.
Data set [14] concerns BEAS-2B. The data set can be described thus: Anti-inflammatory activity in human BEAS2B cells assessed as inhibition of LPS-induced IL6 mRNA expression by real-time qPCR analysis. The data set is classed as functional. Also on record: scale not given: the % may be the effect or the level left.
Data set [15] deals with BEAS-2B. The data set can be described thus: Anti-inflammatory activity in human BEAS2B cells assessed as inhibition of LPS-induced IL1beta mRNA expression by real-time qPCR analysis. It is filed as functional. Also on record: scale not given: the % may be the effect or the level left.
The test system of data set [16] is BEAS-2B. The data set can be described thus: Anti-inflammatory activity in human BEAS2B cells assessed as inhibition of LPS-induced COX2 mRNA expression by real-time qPCR analysis. The data set is classed as functional. Further details: scale not given: the % may be the effect or the level left.
The test system of data set [17] is Rattus norvegicus. The data set can be described thus: Anti-inflammatory activity in Sprague-Dawley rat assessed as decrease in LPS-induced IL6 mRNA expression at 20 mg/kg/day, po for 7 days pre-treated before LPS challenge by real-time qPCR analysis. It is filed as functional.
Data set [18] deals with Rattus norvegicus. Description: Anti-inflammatory activity in Sprague-Dawley rat assessed as decrease in LPS-induced COX2 mRNA expression at 20 mg/kg/day, po for 7 days pre-treated before LPS challenge by real-time qPCR analysis. It is filed as functional.
The subject of data set [19] is Rattus norvegicus. The data set can be described thus: Anti-inflammatory activity in Sprague-Dawley rat assessed as decrease in LPS-induced ICAM1 mRNA expression at 20 mg/kg/day, po for 7 days pre-treated before LPS challenge by real-time qPCR analysis. It is filed as functional.
Data set [20] deals with Rattus norvegicus. The data set can be described thus: Anti-inflammatory activity in Sprague-Dawley rat assessed as decrease in LPS-induced VCAM1 mRNA expression at 20 mg/kg/day, po for 7 days pre-treated before LPS challenge by real-time qPCR analysis. It is filed as functional.

Each structure is given as a SMILES string. Activity calls are given as the source filed them. No cut-off for these calls is given here.

A word on the inhibition in vivo: it is the change of the read-out against control, counted positive when it falls.

Turning to `COc1cc(/C=C2\CCC/C(=C\c3ccc(O)c(Br)c3)C2=O)ccc1O`, the “inhibition (INH)” value in data set [1] and in data set [2] was more than 50% each time. Besides, the Activity result in [3] is “Non-toxic”. Also, the inhibition entry in data set [4] and in [5] was “Dose-dependent effect” each time.
On to `COc1ccc(/C=C2\CCC/C(=C\c3ccc(O)c(OC)c3)C2=O)cc1O`, for which the “inhibition (INH)” value in [1] and in data set [2] was more than 50% each time. Besides, in data set [3], the Activity entry was “Non-toxic”. For the same molecule, the inhibition result in [4] and in data set [5] was “Dose-dependent effect” each time.
Regarding `COc1cc(/C=C2\CC/C(=C\c3c[nH]c4ccc(Br)cc34)C2=O)ccc1O`, the “inhibition (INH)” value in [1] and in data set [2] was more than 50% throughout. Also, the Activity result in data set [3] was “Non-toxic”; in data set [13], 64.5%; in [14], 30%; in data set [15], 55.6%; in data set [16] it was 64.9%. Also, the inhibition entry in [4] and in data set [5] was “Dose-dependent effect” each time. For the same molecule, the outcome in data set [6], in [7], in [8], in data set [9] and in [10] was Active. Besides, the inhibition in vivo at 20 mg/kg/day in data set [11] came out at 39.2%; in data set [12], 38.4%; in data set [17], 92.9%; in data set [18], 77.3%; in data set [19] it was 74.1%; in data set [20], 52.9%.
As to `COc1cc(/C=C2\CC/C(=C\c3cc(C)ccc3C)C2=O)ccc1O`, the “inhibition (INH)” value in data set [1] and in data set [2] was more than 50% each time. Further, in [3], the Activity result was “Non-toxic”. For the same molecule, the inhibition entry in data set [4] and in [5] was “Dose-dependent effect” each time.
